According to patent publication US11098010B2 (priority 2017, dated 2021):
Where two headings read alike, the source gives them in different places.

Tested on: HBV rcDNA in HepDE19 cells
Experiment: HepDE19 assay with bDNA quantitation of HBV rcDNA
Format: cell-based, hepatitis B virus (HBV)
[1] = Hepatitis B virus, HepDE19, 168 h, read-out: DE-19 bDNA EC50 (μM), HepDE19 cells, inhibition of rcDNA formation, 7 day incubation, top concentration 25 μM
[2] = Hepatitis B virus, HepDE19, 168 h, HepDE19 cells, inhibition of rcDNA formation, 7 day incubation, top concentration 25 μM, read-out: DE-19 bDNA EC50

SMILES | EC50 [2] [µM] | other results
CC(C)(C)OC(=O)N1CC(F)(F)CC1COC(=O)N[C@H]1CCc2c(C(=O)Nc3ccc(F)c(Cl)c3)ccc(F)c21 (stereo partly drawn) [Compound 54, tert-Butyl 2-(((((S)-4-((3-chloro-4-fluorophenyl)carbamoyl)-7-fluoro-2,3-dihydro-1H-inden-1-yl)carbamoyl)oxy)methyl)-4,4-difluoropyrrolidine-1-carboxylate] | – | EC50 [1]: 0.99 µM
CC1(C)Cc2c(C(=O)Nc3ccc(F)c(Cl)c3)ccc(F)c2C1NC(=O)OCc1ccccn1 (centres unmarked) [Compound 135, O-Pyridin-2-ylmethyl, N-(4-((3-chloro-4-fluorophenyl)carbamoyl)-7-fluoro-2,2-dimethyl-2,3-dihydro-1H-inden-1-yl) carbamate] | – | EC50 (read-out: DE-19 bDNA EC50, HepDE19 cells, inhibition of rcDNA formation, 7 day incubation, top concentration 25 μM): 8.4 µM
CC(C)(C)[S@@+]([O-])N[C@H]1CCc2c(C(=O)Nc3ccc(F)c(Cl)c3)ccc(F)c21 [Compound 281, (S)-1-(((R)-tert-Butylsulfinyl)amino)-N-(3-chloro-4-fluorophenyl)-7-fluoro-2,3-dihydro-1H-indene-4-carboxamide] | 4.4 | –
COC1Cc2c(C(=O)Nc3ccc(F)c(F)c3)ccc(F)c2C1NC(=O)OCc1ccccn1 (centres unmarked) [Compound 246, O-pyridin-2-ylmethyl, N-(4-((3,4-difluorophenyl)carbamoyl)-7-fluoro-2-methoxy-2,3-dihydro-1H-inden-1-yl)carbamate] | 2.7 | –
O=C(N[C@H]1CCc2c(C(=O)Nc3ccc(F)c(Cl)c3)ccc(F)c21)OCc1cnco1 [Compound 95, O-Oxazol-5-ylmethyl, N—(S)-(4-((3-chloro-4-fluorophenyl)carbamoyl)-7-fluoro-2,3-dihydro-1H-inden-1-yl) carbamate] | 0.06 | –
N#CCCCOC(=O)N[C@H]1CCc2c(C(=O)Nc3ccc(F)c(Cl)c3)ccc(F)c21 [Compound 256, O—(S)-3-Cyanopropyl, N-4-(3-chloro-4-fluorophenylcarbamoyl)-7-fluoro-2,3-dihydro-1H-inden-1-yl carbamate] | 0.24 | –
O=C(NC1c2c(F)ccc(C(=O)Nc3ccc(F)c(Cl)c3)c2CC1(F)F)OCc1ccccn1 (centres unmarked) [Compound 220, O-pyridin-2-ylmethyl, N-(4-((3-chloro-4-fluorophenyl)carbamoyl)-2,2,7-trifluoro-2,3-dihydro-1H-inden-1-yl) carbamate] | – | EC50 (HepDE19 cells, inhibition of rcDNA formation, 7 day incubation, top concentration 25 μM, read-out: DE-19 bDNA EC50): 10 µM
O=C1CCC[C@H](COC(=O)N[C@H]2CCc3c(C(=O)Nc4ccc(F)c(Cl)c4)ccc(F)c32)N1 [Compound 198, O—((R)-6-Oxopiperidin-2-yl)methyl, N—((S)-4-((3-chloro-4-fluorophenyl)carbamoyl)-7-fluoro-2,3-dihydro-1H-inden-1-yl) carbamate] | – | EC50 [1]: 0.22 µM
